The results in this text go back to patent US4405743A, “Pyrazolylpyrimidine derivatives” (Hokko Chemical Industry Co., Ltd., priority 1981, dated 1983).

In data set [1] the test system is Pyricularia oryzae. The format is in vivo, Pyricularia oryzae on rice plant (variety: Asahi). The conditions noted are these: rice blast, prevention; 200 ppm; 5 days after inoculation.
The test system of data set [2] is Pyricularia oryzae. In kind it is in vivo, Pyricularia oryzae on rice plant (variety: Asahi). The settings on record: rice blast, curative treatment; sprayed liquid 200 ppm; 5 days after spraying.
The subject of data set [3] is Cochliobolus miyabeanus. The data set is described as follows: Effect of controlling rice brown spot, Experimental Example 3. In kind it is in vivo, Cochliobolus miyabeanus on rice plant (variety: Asahi). The settings on record: sprayed liquid 500 ppm, 5 days after inoculation.
A further data set deals with Sphaerotheca friliginea. Description: Effect of controlling cucumber powdery mildew, Experimental Example 4. The conditions noted are these: sprayed liquid 200 ppm, 10 days after inoculation. The format is in vivo. How it is done:
10 ml of each of test liquids diluted to a predetermined concentration was sprayed over seedlings of a cucumber plant (variety: Sagami Hanpaku) grown up to the first leaf stage which has been soil cultured in an unglazed pot with a diameter of 9 cm in a green house. After allowing to stand overnight, the seedlings were sprayed for inoculation with a spore suspension of Sphaerotheca friliginea. Ten days after the inoculation, the rate of a lesion area (%) was checked and a control value was evaluated from the following equation. The degree of chemical injury against a cucumber plant was determined in the same manner as in Experimental Example.

In a further data set the test system is Alternaria padwikii. The data set is described as follows: Antimicrobial activity (mycelium growth inhibition, PDA medium). The format is cell-based. The settings on record: 24° C., read-out: ED50 value. As to the method:
(§1) Experimental Example 5 (Test for Antimicrobial Activity Against Various Plant Phathogenic Fungi)
(§2) 1 ml of an acetone solution of each of test compounds and 20 ml of the PDA medium (50° C.) to prepare media containing the chemical in different concentrations, followed by charging into a petri dish with a diameter of 9 cm where it was solidified flat. On the central portion of the chemical-containing medium was inoculated a fungus-containing medium a piece of ager black-containing mycelia which was obtained by punching by means of a cork borer the tip portion of mycelia of each test fungus which had been cultured in advance in the PDA medium, followed by cultivating at 24° C. Two to six days after the cultivation, the diameter of the mycelia was measured and mycelium growth inhibiting rate was calculated from a comparison with that of a non-treated plot. The mycelium growth inhibiting rate was plotted on a logarithmic probability paper to determine an ED50 value.

The subject of a further data set is Botrytis cinerea. The data set is described as above. In kind it is cell-based. The settings on record: 24° C., read-out: ED50 value. As to the method:
as §1, §2

Another data set relates to Curvularia sp. The description is as above. The format is cell-based. The conditions noted are these: 24° C., read-out: ED50 value. As to the method: as §1, §2
A further data set concerns Diaporthe citri. Described as above. In kind it is cell-based. The settings on record: 24° C., read-out: ED50 value. How it is done:
as §1, §2

Another data set deals with Endothia parasitica. The data set is described as above. In kind it is cell-based. The settings on record: Cryphonectria parasitica, 24° C., read-out: ED50 value. How it is done: as §1, §2
The test system of another data set is Fusarium nivale. The description is as above. The format is cell-based. The conditions noted are these: Microdochium nivale, 24° C., read-out: ED50 value. How it is done: as §1, §2
In a further data set the test system is Glomerella cingulata. The data set is described as above. In kind it is cell-based. The conditions noted are these: Colletotrichum gloeosporioides, 24° C., read-out: ED50 value. As to the method: as §1, §2
Data set [4] has as its system Helminthosporium gramineum. The data set is described as above. The settings on record: 24° C., read-out: ED50 value. In kind it is cell-based. As to the method: as §1, §2
In another data set the test system is Mycosphaerella melonis. The description is as above. The format is cell-based. The settings on record: 24° C., read-out: ED50 value. How it is done: as §1, §2
In another data set the test system is Pellicularia sasakii. The description is as above. In kind it is cell-based. The settings on record: 24° C., read-out: ED50 value. As to the method:
as §1, §2

A further data set concerns Penicillium digitatum. Described as above. The settings on record: 24° C., read-out: ED50 value. In kind it is cell-based. As to the method:
as §1, §2

In another data set the test system is Phizoctonia solani. Described as above. In kind it is cell-based. The conditions noted are these: 24° C., read-out: ED50 value. How it is done:
as §1, §2

In a further data set the test system is Phoma lingam. Described as above. In kind it is cell-based. The settings on record: Plenodomus lingam, 24° C., read-out: ED50 value. As to the method:
as §1, §2

In a further data set the test system is Sclerotinia fructigena. Described as above. In kind it is cell-based. The conditions noted are these: 24° C., read-out: ED50 value. How it is done:
as §1, §2

Another data set concerns Sclerotinia sclerotiorum. Described as above. The format is cell-based. The settings on record: 24° C., read-out: ED50 value. As to the method:
as §1, §2

Data set [5] deals with Cochliobolus miyabeanus. The data set is described as above. The format is cell-based. The conditions noted are these: Bipolaris oryzae, read-out: ED50 value.
For data set [6], the system named is Pyricularia oryzae. The data set is described as follows: microbe, parasite or virus in culture. In kind it is cell-based. The settings on record: read-out: ED50 value.
In data set [7] the test system is rice plant. The conditions noted are these: blast prevention test, 200 ppm.
Data set [8] concerns rice plant. The conditions noted are these: blast curative test, 200 ppm.
Data set [9] deals with rice plant. The settings on record: in vivo.
Another data set relates to cucumber plant. The conditions noted are these: in vivo.

≈ marks a conversion by molar mass, not a printed value. Read-outs that look alike come from different tables or passages of the source.

Turning to `Cc1cc(C)n(-c2nccc(Sc3ccccc3)n2)n1` [Compound 4], the “Control Value” in the data set with Pyricularia oryzae [1] stood at 100%; in the data set with Pyricularia oryzae [2] it was 100%; in the data set on Cochliobolus miyabeanus [3] it was 85%; in the data set with Sphaerotheca friliginea, 90%. Further, the IC50 was 1.2 µg/mL (≈ 4.25 µM) in the data set on Alternaria padwikii; 6.5 µg/mL (≈ 23 µM) in the data set on Botrytis cinerea; 0.7 µg/mL (≈ 2.48 µM) in the data set on Curvularia sp.; 2.7 µg/mL (≈ 9.56 µM) with Diaporthe citri; 1.9 µg/mL (≈ 6.73 µM) in the data set with Endothia parasitica; 5.3 µg/mL (≈ 18.8 µM) in the data set with Fusarium nivale. The IC50 in the data set on Glomerella cingulata was found to be 4.1 µg/mL (≈ 14.5 µM); in data set [4], 2.4 µg/mL (≈ 8.5 µM); with Mycosphaerella melonis it was 5.2 µg/mL (≈ 18.4 µM); in the data set with Pellicularia sasakii it was 1.2 µg/mL (≈ 4.25 µM); with Penicillium digitatum, 1.3 µg/mL (≈ 4.6 µM); in the data set with Phizoctonia solani it was 1.1 µg/mL (≈ 3.9 µM). The IC50 worked out at 2.1 µg/mL (≈ 7.44 µM) in the data set on Phoma lingam; 0.4 µg/mL (≈ 1.42 µM) in the data set on Sclerotinia fructigena; 3.2 µg/mL (≈ 11.3 µM) in the data set with Sclerotinia sclerotiorum; 4.6 µg/mL (≈ 16.3 µM) in the data set with Cochliobolus miyabeanus [5]; 0.1 µg/mL (≈ 0.354 µM) in the data set on Pyricularia oryzae [6]. The “Degree of chemical injury” value with rice plant [7], in the data set on rice plant [8], in the data set with rice plant [9] and in the data set with cucumber plant was 0 throughout.

`CCCCc1c(C)nc(-n2nc(C)cc2C)nc1SCC` [Compound 42]: the “Control Value” in the data set with Pyricularia oryzae [1] is on record as 100%; with Pyricularia oryzae [2], 100%; with Cochliobolus miyabeanus [3], 100%; with Sphaerotheca friliginea it was 92%. Further, the IC50 worked out at 0.7 µg/mL (≈ 2.3 µM) in the data set on Alternaria padwikii; 3.7 µg/mL (≈ 12.2 µM) in the data set with Botrytis cinerea; 1.4 µg/mL (≈ 4.6 µM) in the data set on Curvularia sp.; 2.7 µg/mL (≈ 8.87 µM) with Diaporthe citri; 3.8 µg/mL (≈ 12.5 µM) in the data set on Endothia parasitica; 2 µg/mL (≈ 6.57 µM) in the data set with Fusarium nivale. In addition, the IC50 with Glomerella cingulata came out at 4 µg/mL (≈ 13.1 µM); in [4] it was 5.2 µg/mL (≈ 17.1 µM); in the data set with Mycosphaerella melonis, 0.9 µg/mL (≈ 2.96 µM); in the data set with Pellicularia sasakii it was 2 µg/mL (≈ 6.57 µM); in the data set on Penicillium digitatum, 2 µg/mL (≈ 6.57 µM); in the data set with Phizoctonia solani, 1.3 µg/mL (≈ 4.27 µM). Moreover, the IC50 in the data set on Phoma lingam worked out at 3.2 µg/mL (≈ 10.5 µM); with Sclerotinia fructigena, 2.1 µg/mL (≈ 6.9 µM); in the data set on Sclerotinia sclerotiorum, 5.2 µg/mL (≈ 17.1 µM); with Cochliobolus miyabeanus [5], 1.8 µg/mL (≈ 5.91 µM); with Pyricularia oryzae [6], 0.02 µg/mL (≈ 0.0657 µM). For the same molecule, the “Degree of chemical injury” value in the data set with rice plant [7], in the data set on rice plant [8], in the data set with rice plant [9] and in the data set on cucumber plant was 0 each time.

Regarding `Cc1ccc(Oc2cc(C)nc(-n3nc(C)cc3C)n2)c(C)c1` [Compound 27], the “Control Value” in the data set with Pyricularia oryzae [1] and in the data set with Pyricularia oryzae [2] was 100% each time. Moreover, the IC50 with Alternaria padwikii is 1.9 µg/mL (≈ 6.16 µM); in the data set with Botrytis cinerea, 9.8 µg/mL (≈ 31.8 µM); with Curvularia sp., 1.6 µg/mL (≈ 5.19 µM); with Diaporthe citri it was 2.9 µg/mL (≈ 9.4 µM); with Endothia parasitica it was 6.3 µg/mL (≈ 20.4 µM); with Fusarium nivale, 2.8 µg/mL (≈ 9.08 µM). The IC50 in the data set on Glomerella cingulata was determined as 6.7 µg/mL (≈ 21.7 µM); in [4] it was 3.6 µg/mL (≈ 11.7 µM); in the data set on Mycosphaerella melonis it was 4.6 µg/mL (≈ 14.9 µM); in the data set with Pellicularia sasakii it was 1 µg/mL (≈ 3.24 µM); in the data set on Penicillium digitatum, 1.2 µg/mL (≈ 3.89 µM); with Phizoctonia solani, 1.1 µg/mL (≈ 3.57 µM). Moreover, the IC50 came out at 3.7 µg/mL (≈ 12 µM) in the data set with Phoma lingam; 1.4 µg/mL (≈ 4.54 µM) in the data set with Sclerotinia fructigena; 4.8 µg/mL (≈ 15.6 µM) in the data set with Sclerotinia sclerotiorum; 2.2 µg/mL (≈ 7.13 µM) in the data set on Cochliobolus miyabeanus [5]; 0.02 µg/mL (≈ 0.0649 µM) with Pyricularia oryzae [6]. Further, the “Degree of chemical injury” value with rice plant [7] and in the data set on rice plant [8] was 0 throughout.
